Data published in ChEMBL document CHEMBL3585344, “Thiazole-based aminopyrimidines and N-phenylpyrazolines as potent antimicrobial agents: synthesis and biological evaluation” (2014).
Converted amounts (≈) assume the structure as drawn.

Columns and labels:
Aspergillus versicolor [1] = assay: Antifungal activity against Aspergillus versicolor ATCC 11730 after 72 hrs by microdilution method; type: functional; conditions: ATCC 11730, 72 h
Bacillus cereus [2] = assay: Antibacterial activity against Bacillus cereus clinical isolate after 24 hrs by microdilution method; type: functional
Staphylococcus aureus [3] = assay: Bactericidal activity against Staphylococcus aureus ATCC 6538 after 72 hrs by microdilution method; type: functional
Salmonella typhimurium [4] = assay: Bactericidal activity against Salmonella typhimurium ATCC 13311 after 72 hrs by microdilution method; type: functional, Salmonella enterica subsp. enterica serovar Typhimurium
Trichoderma viride [5] = assay: Antifungal activity against Trichoderma viride IAM 5061 after 72 hrs by microdilution method; type: functional; conditions: IAM 5061, 72 h
Enterococcus faecalis [6] = assay: Antibacterial activity against Enterococcus faecalis ATCC 7080 isolated from human after 24 hrs by microdilution method; type: functional; conditions: ATCC 7080, 24 h
Listeria monocytogenes [7] = assay: Bactericidal activity against Listeria monocytogenes NCTC 7973 after 72 hrs by microdilution method; type: functional
Penicillium ochrochloron [8] = assay: Fungicidal activity against Penicillium ochrochloron ATCC 9112 after 72 hrs by microdilution method; type: functional
Aspergillus versicolor [9] = assay: Fungicidal activity against Aspergillus versicolor ATCC 11730 after 72 hrs by microdilution method; type: functional
Aspergillus fumigatus [10] = assay: Fungicidal activity against Aspergillus fumigatus isolated from human after 72 hrs by microdilution method; type: functional
Aspergillus flavus [11] = assay: Antifungal activity against Aspergillus flavus ATCC 9643 after 72 hrs by microdilution method; type: functional; conditions: ATCC 9643, 72 h
Penicillium ochrochloron [12] = assay: Antifungal activity against Penicillium ochrochloron ATCC 9112 after 72 hrs by microdilution method; type: functional; conditions: ATCC 9112, 72 h
Escherichia coli [13] = assay: Bactericidal activity against Escherichia coli ATCC 35210 after 72 hrs by microdilution method; type: functional
Aspergillus niger [14] = assay: Antifungal activity against Aspergillus niger ATCC 6275 after 72 hrs by microdilution method; type: functional; conditions: ATCC 6275, 72 h
Aspergillus ochraceus [15] = assay: Antifungal activity against Aspergillus ochraceus ATCC 12066 after 72 hrs by microdilution method; type: functional; conditions: ATCC 12066, 72 h
Trichoderma viride [16] = assay: Fungicidal activity against Trichoderma viride IAM 5061 after 72 hrs by microdilution method; type: functional
Listeria monocytogenes [17] = assay: Antibacterial activity against Listeria monocytogenes NCTC 7973 after 24 hrs by microdilution method; type: functional; conditions: NCTC 7973, 24 h
Aspergillus niger [18] = assay: Fungicidal activity against Aspergillus niger ATCC 6275 after 72 hrs by microdilution method; type: functional
Talaromyces funiculosus [19] = assay: Fungicidal activity against Penicillium funiculosum ATCC 36839 after 72 hrs by microdilution method; type: functional
Aspergillus flavus [20] = assay: Fungicidal activity against Aspergillus flavus ATCC 9643 after 72 hrs by microdilution method; type: functional
Enterococcus faecalis [21] = assay: Bactericidal activity against Enterococcus faecalis ATCC 7080 isolated from human after 72 hrs by microdilution method; type: functional
Talaromyces funiculosus [22] = assay: Antifungal activity against Penicillium funiculosum ATCC 36839 after 72 hrs by microdilution method; type: functional; conditions: ATCC 36839, 72 h
Escherichia coli [23] = assay: Antibacterial activity against Escherichia coli ATCC 35210 after 24 hrs by microdilution method; type: functional; conditions: ATCC 35210, 24 h
Staphylococcus aureus [24] = assay: Antibacterial activity against Staphylococcus aureus ATCC 6538 after 24 hrs by microdilution method; type: functional; conditions: ATCC 6538, 24 h
Micrococcus flavus [25] = assay: Bactericidal activity against Micrococcus flavus ATCC 10240 after 72 hrs by microdilution method; type: functional
Aspergillus fumigatus [26] = assay: Antifungal activity against Aspergillus fumigatus isolated from human after 72 hrs by microdilution method; type: functional
Aspergillus ochraceus [27] = assay: Fungicidal activity against Aspergillus ochraceus ATCC 12066 after 72 hrs by microdilution method; type: functional
Pseudomonas aeruginosa [28] = assay: Antibacterial activity against Pseudomonas aeruginosa ATCC 27853 after 24 hrs by microdilution method; type: functional; conditions: ATCC 27853, 24 h
Bacillus cereus [29] = assay: Bactericidal activity against Bacillus cereus clinical isolate after 72 hrs by microdilution method; type: functional
Micrococcus flavus [30] = assay: Antibacterial activity against Micrococcus flavus ATCC 10240 after 24 hrs by microdilution method; type: functional; conditions: ATCC 10240, 24 h
Pseudomonas aeruginosa [31] = assay: Bactericidal activity against Pseudomonas aeruginosa ATCC 27853 after 72 hrs by microdilution method; type: functional
Salmonella typhimurium [32] = assay: Antibacterial activity against Salmonella typhimurium ATCC 13311 after 24 hrs by microdilution method; type: functional, Salmonella enterica subsp. enterica serovar Typhimurium; conditions: Salmonella enterica, ATCC 13311, 24 h

Row | MIC (Aspergillus versicolor [1]) [µM] | MIC (Bacillus cereus [2]) [µM] | MIC (Trichoderma viride [5]) [µM] | MIC (Enterococcus faecalis [6]) [µM] | MIC (Aspergillus flavus [11]) [µM] | MIC (Penicillium ochrochloron [12]) [µM] | MIC (Aspergillus niger [14]) [µM] | MIC (Aspergillus ochraceus [15]) [µM] | MIC (Listeria monocytogenes [17]) [µM] | Compound | MBC99.5 (Staphylococcus aureus [3]) [×10⁻² umol/ml] | MBC99.5 (Salmonella typhimurium [4]) [×10⁻² umol/ml] | MBC99.5 (Listeria monocytogenes [7]) [×10⁻² umol/ml] | MFC99.5 (Penicillium ochrochloron [8]) [×10⁻² umol/ml] | MFC99.5 (Aspergillus versicolor [9]) [×10⁻² umol/ml] | MFC99.5 (Aspergillus fumigatus [10]) [×10⁻² umol/ml] | MBC99.5 (Escherichia coli [13]) [×10⁻² umol/ml] | MFC99.5 (Trichoderma viride [16]) [×10⁻² umol/ml] | MFC99.5 (Aspergillus niger [18]) [×10⁻² umol/ml] | MFC99.5 (Talaromyces funiculosus [19]) [×10⁻² umol/ml] | MFC99.5 (Aspergillus flavus [20]) [×10⁻² umol/ml] | other results
1 | 55.2 (≈ 20 µg/mL) | 55.2 (≈ 20 µg/mL) | 55.2 (≈ 20 µg/mL) | 442 (≈ 160 µg/mL) | 110 (≈ 40 µg/mL) | 276 (≈ 100 µg/mL) | 442 (≈ 160 µg/mL) | 96 (≈ 34.8 µg/mL) | 96 (≈ 34.8 µg/mL) | CNc1nc(C)c(C2=NN(c3ccccc3)C(c3ccc(C)cc3)C2)s1 (centres undefined) | 27.6 | 27.6 | 11.04 | 44.6 | 27.6 | 44.16 | 58.6 | 11.04 | 58.6 | 44.16 | 27.6 | MBC99.5 (Enterococcus faecalis [21]): 58.64 ×10⁻² umol/ml; MIC (Talaromyces funiculosus [22]): 276 µM (≈ 100 µg/mL); MIC (Escherichia coli [23]): 276 µM (≈ 100 µg/mL); MIC (Staphylococcus aureus [24]): 110 µM (≈ 40 µg/mL); MBC99.5 (Micrococcus flavus [25]): 58.6 ×10⁻² umol/ml; MIC (Aspergillus fumigatus [26]): 276 µM (≈ 100 µg/mL); MFC99.5 (Aspergillus ochraceus [27]): 11.04 ×10⁻² umol/ml; MIC (Pseudomonas aeruginosa [28]): 276 µM (≈ 100 µg/mL); MBC99.5 (Bacillus cereus [29]): 27.6 ×10⁻² umol/ml; MIC (Micrococcus flavus [30]): 276 µM (≈ 100 µg/mL); MBC99.5 (Pseudomonas aeruginosa [31]): 33.12 ×10⁻² umol/ml; MIC (Salmonella typhimurium [32]): 110 µM (≈ 40 µg/mL)
2 | 55.2 (≈ 20 µg/mL) | 55.2 (≈ 20 µg/mL) | 276 (≈ 100 µg/mL) | 110 (≈ 40 µg/mL) | 110 (≈ 40 µg/mL) | 309 (≈ 112 µg/mL) | 309 (≈ 112 µg/mL) | 27.6 (≈ 10 µg/mL) | 55.2 (≈ 20 µg/mL) | CCNc1nc(C)c(C2=NN(c3ccccc3)C(c3ccccc3)C2)s1 (centres undefined) | 27.6 | 30.9 | 11.04 | 44.16 | 27.6 | 44.16 | 44.16 | 30.9 | 44.16 | 30.9 | 27.6 | MBC99.5 (Enterococcus faecalis [21]): 27.6 ×10⁻² umol/ml; MIC (Talaromyces funiculosus [22]): 110 µM (≈ 40 µg/mL); MIC (Escherichia coli [23]): 276 µM (≈ 100 µg/mL); MIC (Staphylococcus aureus [24]): 27.6 µM (≈ 10 µg/mL); MBC99.5 (Micrococcus flavus [25]): 44.16 ×10⁻² umol/ml; MIC (Aspergillus fumigatus [26]): 110 µM (≈ 40 µg/mL); MFC99.5 (Aspergillus ochraceus [27]): 11.04 ×10⁻² umol/ml; MIC (Pseudomonas aeruginosa [28]): 276 µM (≈ 100 µg/mL); MBC99.5 (Bacillus cereus [29]): 27.6 ×10⁻² umol/ml; MIC (Micrococcus flavus [30]): 110 µM (≈ 40 µg/mL); MBC99.5 (Pseudomonas aeruginosa [31]): 44.16 ×10⁻² umol/ml; MIC (Salmonella typhimurium [32]): 276 µM (≈ 100 µg/mL)
